Measurements taken from patent US20230212274A1, “METHOD FOR TREATING ASTHMA OR ALLERGIC DISEASE” (THE CHILDREN'S MEDICAL CENTER CORPORATION, priority 2020, published 2023).
Entries after “also recorded” stand apart in the source; their conditions may differ.

Tests used:
[1] = test system: GDF15; assay: in vitro co-culture of GDF15-expressing Notch4high Treg cells with naive ILC2 cells; type: cell-based, mouse; details: Treg cells from lungs of OVA+UFP-treated mice
Description: (§1) FIGS. 5A-5L show Notch4 promotes ILC2 activation via a GDF15-dependent mechanism (FIG. 5A) Flow cytometric analysis and frequencies of IL13^+ ILC2 (Lineage^- T1/ST2^+ cells) in mice of respective genotypes treated as indicated. (FIG. 5B and FIG. 5C) In vitro suppression assays of ILC2 cells isolated from OVA+UFP-treated Foxp3^YFPCre mice and incubated with Treg cells of mice of the respective genotypes treated as indicated. Additional treatment of in vitro cultures with isotype control or anti-Notch4 mAb is also indicated. (FIG. 5D) Flow cytometric analysis and frequencies of GDF15^+ lung Treg cells of mice of the respective genotypes treated as indicated. (FIG. 5E) Flow cytometric analysis and frequencies of IL-13 expression in cultures of naive ILC2 stimulated with IL-33, GDF15 or both. (FIG. 5F) IL-13 expression in naive ILC2 incubated with Notch4^high Treg cells from OVA+UFP treated mice without or with blocking GDF15 peptide. (FIG. 5G and FIG. 5H) AHR and IL13^+ ILC2 frequencies in Foxp3^YFPCre mice treated as indicated and challenged in the presence of carrier protein or GDF15 blocking peptide. (FIG. 5I to FIG. 5K) AHR and frequencies of the indicated lung cell types in sham or OVA+UFP sensitized and challenged Foxp3^YFPCre and Foxp3^YFPCreNotch4^Δ/Δ mice treated with recombinant GDF15, as indicated. Each symbol represents an independent sample. […]

[2] = test system: allergic airway inflammation; assay: OVA+UFP allergic airway inflammation in mice, intra-tracheal instillation; type: in vivo, mouse
Description: FIGS. 5A-5L show Notch4 promotes ILC2 activation via a GDF15-dependent mechanism (FIG. 5A) Flow cytometric analysis and frequencies of IL13^+ ILC2 (Lineage^- T1/ST2^+ cells) in mice of respective genotypes treated as indicated. (FIG. 5B and FIG. 5C) In vitro suppression assays of ILC2 cells isolated from OVA+UFP-treated Foxp3^YFPCre mice and incubated with Treg cells of mice of the respective genotypes treated as indicated. Additional treatment of in vitro cultures with isotype control or anti-Notch4 mAb is also indicated. (FIG. 5D) Flow cytometric analysis and frequencies of GDF15^+ lung Treg cells of mice of the respective genotypes treated as indicated. (FIG. 5E) Flow cytometric analysis and frequencies of IL-13 expression in cultures of naive ILC2 stimulated with IL-33, GDF15 or both. (FIG. 5F) IL-13 expression in naive ILC2 incubated with Notch4^high Treg cells from OVA+UFP treated mice without or with blocking GDF15 peptide. (FIG. 5G and FIG. 5H) AHR and IL13^+ ILC2 frequencies in Foxp3^YFPCre mice treated as indicated and challenged in the presence of carrier protein or GDF15 blocking peptide. (FIG. 5I to FIG. 5K) AHR and frequencies of the indicated lung cell types in sham or OVA+UFP sensitized and challenged Foxp3^YFPCre and Foxp3^YFPCreNotch4^Δ/Δ mice treated with recombinant GDF15, as indicated. Each symbol represents an independent sample. Numbers in flow plots indicate percentages. Error bars indicate SEM. Statistical tests: two-way ANOVA with Sidak’s post hoc analysis (FIGS. 5A to 5D, 5G and 5I); One-way ANOVA with Dunnett’s post hoc analysis (FIGS. 5E and 5F, 5H and 5J). *P<0.05, ***P<0.001, ****P<0.0001. Data representative of two or three independent experiments. n=5-15 mice per group.
(FIG. 18A) Representative PAS-stained sections of lung tissues isolated from Foxp3^YFPCre and Foxp3^YFPCreNotch4^Δ/Δ with either PBS or OVA+UFP, the latter either alone or supplemented with GDF15, as indicated (200X magnification). (FIG. 18B) Inflammation score for the respective mouse groups. (FIG. 18C) Frequencies of ILC in the lungs of respective mouse groups. (FIG. 18D) IL-4, IL-13, and IL-17 expression in lung Foxp3^-CD4^+ Teff cells in the respective groups. (FIG. 18E) IL-4, IL-13, and IL-17 expression in lung Foxp3^+CD4^+ Treg cells in the respective groups. Error bars indicate SEM. Statistical tests. One-way ANOVA with Dunnett’s post hoc analysis. (FIGS. 18A-18E) **P<0.01, ***P<0.001, ****P<0.0001. Data representative of two or three independent experiments. n=10 mice per group.
(FIG. 19A) Representative PAS-stained sections of lung tissues isolated from Foxp3^YFPCre, treated with GDF15 blocking peptide segregated into PBS, or OVA+UFP-treated groups (200X magnification). (FIG. 19B) Inflammation score for the respective mouse groups. […]

[3] = test system: Notch4 expression on differentiating iTreg cells; assay: in vitro iTreg cell differentiation: OT-II T cells co-cultured with OVA323-339- or OVA323-339+UFP-pulsed alveolar macrophages, Notch4 by flow cytometry; type: cell-based, mouse; details: for Notch4 expression on differentiating iTreg cells: cytokine added to co-cultures with OVA323-339 / OVA323-339+UFP-pulsed alveolar macrophages
Excerpt: (§2) FIGS. 1A-1H show Notch4 expression on lung Treg cells in allergic airway inflammation. (FIG. 1A) RT-PCR of Notchl-4 transcripts in lung Treg and Teff cells isolated from PBS, OVA and OVA+UFP mouse groups. (FIG. 1B and FIG. 1C) Flow cytometric analysis, cell frequencies and mean fluorescence intensity (MFI) of Notch4 expression on lung Treg and Teff cells in the respective mouse groups. (FIG. 1D and FIG. 1E) Flow cytometric analysis and cell frequencies of Notch4 expression on OT-II^+CD4^+Foxp3^+ T cells generated in co-cultures with sham or OVA323-339+UFP-pulsed alveolar macrophages without or with IL-6 or anti-IL-6R mAb. (FIG. 1F) Flow cytometric analysis and cell frequencies of Notch4 expression in Helios^high and Helios^low lung Treg cells isolated from the respective mouse groups. (FIG. 1G) Flow cytometric analysis and cell frequencies of Notch4 expression on in vitro differentiated Treg cells derived from naive CD4^+ T cells isolated from Foxp3^YFPCre, Foxp3^YFPCreIl6r^Δ/Δ and Foxp3^YFPCreStat3^Δ/Δ mice and either untreated or treated with IL-6. (FIG. 1H) ChIP assays for the binding of STAT3 and control (IgG) antibodies to the Notch4 promoter in lung Treg cells of OVA+UFP-treated Foxp3^YFPCre, and Foxp3^YFPCreStat3^Δ/Δ mice. Each symbol represents one mouse. Numbers in flow plots indicate percentages. Error bars indicate SEM. Statistical tests for all panels: One-way ANOVA with Dunnett’s post hoc analysis. *P<0.05, **P<0.01, ***P<0.001, ****P<0.0001. Data representative of two or three independent experiments. (FIGS. 1A, 1D to 1F) n=5, (FIGS. 1B and 1C) n=15 and (FIGS. 1G and 1H) n=6 replicates per group.
FIGS. 7A-7E show Notch4 expression on lung Treg cells in allergic airway inflammation. (FIGS. 7A to 7C) Flow cytometric analysis, cell frequencies and mean fluorescence intensity (MFI) of Notch1, 2 and 3 expression on lung Treg and Teff cells in the respective mouse groups. (FIG. 7D) Cell frequencies of Notch4 expression on OT-II^+CD4^+Foxp3^+ T cells generated in co-cultures with sham or OVA323-339+UFP-pulsed alveolar macrophages without or with IL-1B, IL-25, IL-33, TSLP or TNFa. (FIG. 7E) ChIP assays for the binding of STAT3 and control (IgG) antibodies to the Notch1, 2 and 3 promoters in lung Treg cells of OVA+UFP-treated Foxp3^YFPCre, and Foxp3^YFPCreStat3^Δ/Δ mice. Each symbol represents one mouse. Numbers in flow plots indicate percentages. Error bars indicate SEM. Statistical tests for all panels: One-way ANOVA with Dunnett’s post hoc analysis. *P<0.05, **P<0.01, ***P<0.001, ****P<0.0001. Data representative of two or three independent experiments. N = 5-10 replicas per group.
To examine signals driving the induction of Notch4 on iTreg cells, the inventors employed an in vitro iTreg cell differentiation system in which OT-II T cell receptor (TCR) transgenic T cells, specific for the OVA323-339 peptide, were incubated with isolated primary alveolar macrophages (AM). […] Chromatin immunoprecipitation assays confirmed IL-6-dependent inducible binding of STAT3 to the Notch4 promoter in Treg cells, but not to those of Notch1, Notch2 or Notch3, which was abrogated by Stat3 deletion (FIG. 1I; […]).

[4] = test system: Notch4 on differentiating Treg cells; assay: antigen presenting cell-free in vitro iTreg cell differentiation (anti-CD3+anti-CD28 mAbs, TGF-β1); type: cell-based, mouse; details: naive T cells
Excerpt: as §2, with “Statistical tests for all panels: One-way ANOVA with Dunnett’s post hoc analysis. *P<0.05, **P<0.01, ***P<0.001, ****P<0.0001. Data representative of two or three independent experiments. (FIGS. 1A, 1D to 1F) n=5, (FIGS. 1B and 1C) n=15 and (FIGS. 1G and 1H) n=6 replicates per group.” left out

[5] = test system: Notch4 expression on Treg cells; assay: Notch4 expression on peripheral blood Treg cells of a severe asthmatic subject before and after therapy; type: in vivo, human; details: post therapy
Excerpt: In contrast, Notch4 expression on circulating CD4^+ Teff cells was low and remained relatively flat as a function of asthma severity (FIG. 6B). Also, expression of Notchl-3 on Treg and Teff cells was not increased in asthmatics as compared to control subjects (FIGS. 17A-17I). Notch4 expression was restricted to the Helios^low iTreg cell subpopulation (FIG. 6C). […] Also, there were increased concentrations of GDF 15 in the sera of moderate and severe asthmatics that positively correlated with circulating Treg cell Notch4 expression (FIG. 6F).

[6] = test system: IL-13 expression in naive ILC2; assay: in vitro cultures of ILC2 derived from naive mice stimulated with GDF15, IL-33 or both; type: cell-based, mouse
Description: as §1

[7] = OVA+UFP treated Foxp3YFPCreNotch4Δ/Δ mice, intra-tracheal instillation

GDF15 blocking peptide: GDF15 inhibitory peptide, KTSLHRLKPDTVPAPC (SEQ ID NO: 1; amino acids 258-273 of the full length GDF15 gene product) (listed as Homo sapiens)
upregulation of IL13 expression in naive ILC2 by Notch4high Treg cells [1]: reversed | AHR, tissue inflammation, IL-4 and IL-13 expression in Teff cells (allergic airway inflammation) ([2]; OVA+UFP treated Foxp3YFPCre mice, instillation): downregulated the aforementioned changes; also recorded: attenuates allergic airway inflammation

TNFa
Notch4 expression on differentiating iTreg cells [3]: not

IL-6: interleukin-6 cytokine added to cell cultures
Notch4 expression on differentiating iTreg cells [3]: super-induction of Notch4 expression | Notch4 on differentiating Treg cells [4]: induced Notch4 on differentiating Treg cells

Tocilizumab: anti-IL-6R mAb (anti-IL-6Ra chain mAb)
Notch4 expression on patient Treg cells [5]: decreased Notch4 expression | Notch4 expression on patient Treg cells ([5]; listed as tocilizumab): substantially attenuated Notch4 expression

TSLP: cytokine added to cell cultures
Notch4 expression on differentiating iTreg cells [3]: not

IL-1β: cytokine added to cell cultures
Notch4 expression on differentiating iTreg cells [3]: not

B1: IL-25: cytokine added to cell cultures (protein, UniProt Q9H293 33-177, looked up)
Interleukin-25: YSHWPSCCPSKGQDTSEELLRWSTVPVPPLEPARPNRHPESCRASEDGPLNSRAISPWRYELDRDLNRLPQDLYHARCLCPHCVSLQTGSHMDPRGNSELLYHNQTVFYRRPCHGEKGTHKGYCLERRLYRVSLACVCVRPRVMG
Notch4 expression on differentiating iTreg cells [3]: not

B2: IL-33: cytokine added to cell cultures (protein, UniProt O95760 1-270, looked up)
Interleukin-33: MKPKMKYSTNKISTAKWKNTASKALCFKLGKSQQKAKEVCPMYFMKLRSGLMIKKEACYFRRETTKRPSLKTGRKHKRHLVLAACQQQSTVECFAFGISGVQKYTRALHDSSITGISPITEYLASLSTYNDQSITFALEDESYEIYVEDLKKDEKKDKVLLSYYESQHPSNESGDGVDGKMLMVTLSPTKDFWLHANNKEHSVELHKCEKPLPDQAFFVLHNMHSNCVSFECKTDPGVFIGVKDNHLALIKVDSSENLCTENILFKLSET
Notch4 expression induced by IL-6 ([3]; added together with IL-6): further upregulated the expression of Notch4 | Notch4 expression on differentiating iTreg cells [3]: did not induce Notch4 on its own

B3: recombinant GDF15: recombinant cytokine growth and differentiation factor 15, secreted ligand of the TGF-beta superfamily (protein, UniProt Q99988 195-308, looked up)
Growth/differentiation factor …: ARARNGDHCPLGPGRCCRLHTVRASLEDLGWADWVLSPREVQVTMCIGACPSQFRAANMHAQIKTSLHRLKPDTVPAPCCVPASYNPMVLIQKTDTGVSLQTYDDLLAKDCHCI
IL-13 expression in ILC2 derived from naive mice ([6]; alone): upregulated IL-13 expression alone | IL-13 expression in ILC2 derived from naive mice ([6]; in combination with IL-33): especially in synergy with IL-33 | AHR and tissue inflammation [2, 7]: upregulated the AHR and tissue inflammation | IL-4 and IL-13 expression in Teff cells [2, 7]: increasing IL-4 and IL-13 expression in Teff cells | AHR and tissue inflammation ([2]; OVA+UFP treated Foxp3YFPCreNotch4Δ/Δ mice, intra-tracheal instillation, listed as GDF15): restores airway inflammation
